Test results published in patent US20190048016A1, “SUBSTITUTED BRIDGED UREA ANALOGS AS SIRTUIN MODULATORS” (GlaxoSmithKline Intellectual Property(No.2)Limited, priority 2014, published 2019).

Target: T1, SIRT1 (Homo sapiens, UniProt Q96EB6)
T1 sequence (Q96EB6 1-747): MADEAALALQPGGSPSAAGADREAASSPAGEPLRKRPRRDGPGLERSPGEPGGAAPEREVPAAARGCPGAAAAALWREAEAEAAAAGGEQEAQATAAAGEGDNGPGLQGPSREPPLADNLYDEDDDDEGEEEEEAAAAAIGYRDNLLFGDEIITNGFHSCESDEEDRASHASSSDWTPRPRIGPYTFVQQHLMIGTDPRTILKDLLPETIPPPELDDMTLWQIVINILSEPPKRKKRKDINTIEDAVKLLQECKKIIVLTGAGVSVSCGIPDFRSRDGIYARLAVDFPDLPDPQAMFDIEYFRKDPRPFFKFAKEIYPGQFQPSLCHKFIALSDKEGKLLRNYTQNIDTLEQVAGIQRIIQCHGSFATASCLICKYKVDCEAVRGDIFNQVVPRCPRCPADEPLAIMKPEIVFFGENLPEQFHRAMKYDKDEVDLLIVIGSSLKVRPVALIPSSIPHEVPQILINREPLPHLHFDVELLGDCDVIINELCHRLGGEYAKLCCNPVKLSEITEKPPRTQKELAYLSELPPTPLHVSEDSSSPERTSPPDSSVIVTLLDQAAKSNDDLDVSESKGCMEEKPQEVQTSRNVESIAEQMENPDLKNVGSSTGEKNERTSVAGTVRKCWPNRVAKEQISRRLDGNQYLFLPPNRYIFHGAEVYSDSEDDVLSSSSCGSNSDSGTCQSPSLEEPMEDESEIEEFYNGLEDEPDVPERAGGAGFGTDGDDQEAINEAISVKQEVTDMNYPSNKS
Assay: Trp mass spectrometry assay of SIRT1 activation (deacetylation of Ac-R-H-K-K(Ac)-W-NH2 peptide, OAADPR formation)
Format: biochemical
Conditions: Trp peptide 0.5 μM, 120 μM βNAD+, 10 nM SIRT1, 25 min, 25° C.; for Emax: 25 min, read-out: TRP MAX RESP (percent maximum fold activation relative to control = 100%)
Source text: Mass spectrometry based assays were used to identify modulators of SIRT1 activity. The TAMRA based assay utilized a peptide having 20 amino acid residues as follows: Ac-EE-K(biotin)-[…](Ac)NleSTEG-K(5TMR)-EE-NH2 (SEQ ID NO: 1), wherein K(Ac) is an acetylated lysine residue and Nle is a norleucine. The peptide was labeled with the fluorophore 5TMR (excitation 540 nm/emission 580 nm) at the C-terminus. The sequence of the peptide substrate was based on p53 with several modifications. In addition, the methionine residue naturally present in the sequence was replaced with the norleucine because the methionine may be susceptible to oxidation during synthesis and purification. The Trp based assay utilized a peptide having an amino acid residues as follows: Ac-R-H-K-K(Ac)-W-NH2 (SEQ ID NO: 2).
The Trp mass spectrometry assay was conducted as follows. 0.5 μM peptide substrate and 120 μM βNAD^+ were incubated with 10 nM SIRT1 for 25 minutes at 25° C. in a reaction buffer (50 mM HEPES pH 7.5, […], 1 mM DTT, 0.05% BSA). The SIRT1 protein was obtained by cloning the SirT1 gene into a T7-promoter containing vector, which was then expressed in BL21(DE3) bacterial cells and purified as described in further detail below. Test compound was added at varying concentrations to this reaction mixture and the resulting reactions were monitored. After the 25 minute incubation with SIRT1, 10 μL of 10% formic acid was added to stop the reaction. The resulting reactions were sealed and frozen for later mass spec analysis. The relative SIRT1 activity was then determined by measuring the amount of O-acetyl-ADP-ribose (OAADPR) formed (or, alternatively, the amount of deacetylated Trp peptide generated) by the NAD-dependent sirtuin deacetylation reaction in the presence of varying concentrations of the test compound versus control reactions lacking the test compound. The degree to which the test agent activated deacetylation by SIRT1 was expressed as EC1.5 (i.e., the concentration of compound required to increase SIRT1 activity by 50% over the control lacking test compound), and Percent Maximum Activation (i.e., the maximum activity relative to control (100%) obtained for the test compound).
A control for inhibition of sirtuin activity was conducted by adding 1 μL of 500 mM nicotinamide as a negative control at the start of the reaction (e.g., permits determination of maximum sirtuin inhibition). A control for activation of sirtuin activity was conducted using 10 nM of sirtuin protein, with 1 μL of DMSO in place of compound, to determine the amount of deacetylation of the substrate at a given time point within the linear range of the assay. This time point was the same as that used for test compounds and, within the linear range, the endpoint represents a change in velocity.
For the above assay, SIRT1 protein was expressed and purified as follows. The SirT1 gene was cloned into a T7-promoter containing vector and transformed into BL21(DE3). The protein was expressed by induction with 1 mM IPTG as an N-terminal His-tag fusion protein at 18° C. overnight and harvested at 30,000×g. Cells were lysed with lysozyme in lysis buffer (50 mM Tris-HCl, 2 mM Tris[2-carboxyethyl] phosphine (TCEP), 10 μM ZnCl2, 200 mM NaCl) and further treated with sonication for 10 min for complete lysis. The protein was purified over a Ni-NTA column (Amersham) and fractions containing pure protein were pooled, concentrated and run over a sizing column (Sephadex S200 26/60 global). The peak containing soluble protein was collected and run on an Ion-exchange column (MonoQ). Gradient elution (200 mM-500 mM NaCl) yielded pure protein. This protein was concentrated and dialyzed against dialysis buffer (20 mM Tris-HCl, 2 mM TCEP) overnight. The protein was aliquoted and frozen at −80° C. until further use.
Sirtuin-modulating compounds of Formula (I) that activated SIRT1 were identified using the assay described above and are shown below in Table 1. […]

SMILES | Emax | TRP Activity (EC1.5, concentration of compound required to increase SIRT1 activity by 50% over control) | TRP MAX RESP (percent maximum fold activation relative to control = 100%)
O=C(Nc1cnc(OC[C@H](O)CO)cn1)N1c2nc(-c3cccc(C(F)(F)F)c3)c(Cl)cc2N2CCC[C@H]1C2 [Example 73, (9S)-3-chloro-N-(5-((R)-2,3-dihydroxypropoxy)pyrazin-2-yl)-2-(3-(trifluoromethyl)phenyl)-8,9-dihydro-6H-5,9-methanopyrido[2,3-b][1,4]diazocine-10(7H)-carboxamide] | ≥ 150% | A (EC1.5<1 μM) | 
O=C(Nc1cccnc1)N1c2nc(N3CCCC(C(F)(F)F)C3)ccc2N2CCC[C@H]1C2 (single isomer, unassigned) [Example 28] |  | A (EC1.5<1 μM) | 
O=C(Nc1cccnc1)N1c2nc(N3CCCC(C(F)(F)F)C3)ccc2N2CCC[C@H]1C2 (single isomer, unassigned) [Example 25] | ≥ 150% | A (EC1.5<1 μM) | 
Cc1ccc2c(NC(=O)N3c4nc(C(=O)NC(CO)C(F)(F)F)ccc4N4CCC[C@H]3C4)n[nH]c2n1 (single isomer, unassigned) [Example 45] | ≥ 150% | B (EC1.5 1-25 μM) | 
O=C(Nc1cnc(OC[C@@H](O)CO)nc1)N1c2nc(-c3cccc(C(F)(F)F)c3)c(Cl)cc2N2CCC[C@H]1C2 [Example 72, (9S)-3-chloro-N-(2-((S)-2,3-dihydroxypropoxy)pyrimidin-5-yl)-2-(3-(trifluoromethyl)phenyl)-8,9-dihydro-6H-5,9-methanopyrido[2,3-b][1,4]diazocine-10(7H)-carboxamide] | ≥ 150% | A (EC1.5<1 μM) | 
Cc1cc(-c2nc3c(cc2C)N2CCC[C@@H](C2)N3C(=O)Nc2cccnc2)ccn1 [Example 68, (9S)-3-methyl-2-(2-methylpyridin-4-yl)-N-(pyridin-3-yl)-8,9-dihydro-6H-5,9-methanopyrido[2,3-b][1,4]diazocine-10(7H)-carboxamide] | ≥ 150% | A (EC1.5<1 μM) | 
O=C(Nc1cncc(OC[C@H](O)CO)c1)N1c2nc(-c3cccc(C(F)(F)F)c3)c(Cl)cc2N2CCC[C@H]1C2 [Example 76, (9S)-3-chloro-N-(5-((R)-2,3-dihydroxypropoxy)pyridin-3-yl)-2-(3-(trifluoromethyl)phenyl)-8,9-dihydro-6H-5,9-methanopyrido[2,3-b][1,4]diazocine-10(7H)-carboxamide] | ≥ 150% | A (EC1.5<1 μM) | 
O=C(Nc1cnccn1)N1c2nc(N3CCCC(C(F)(F)F)C3)ccc2N2CCC[C@H]1C2 (single isomer, unassigned) [Example 30] | ≥ 150% | A (EC1.5<1 μM) | 
O=C(Nc1ccccn1)N1c2nc(N3CCC[C@H]3C(F)(F)F)ccc2N2CCC[C@H]1C2 [Example 1, (9S)-N-(pyridin-2-yl)-2-((S)-2-(trifluoromethyl)pyrrolidin-1-yl)-8,9-dihydro-6H-5,9-methanopyrido[2,3-b][1,4]diazocine-10(7H)-carboxamide] | ≥ 150% | B (EC1.5 1-25 μM) | 
O=C(Nc1cncnc1)N1c2nc(-c3cncc(C(F)(F)F)c3)ccc2N2CCC[C@H]1C2 [Example 3, (9S)-N-(pyrimidin-5-yl)-2-(5-(trifluoromethyl)pyridin-3-yl)-8,9-dihydro-6H-5,9-methanopyrido[2,3-b][1,4]diazocine-10(7H)-carboxamide] | ≥ 150% | A (EC1.5<1 μM) | 
O=C(Nc1ccc(F)cn1)N1c2nc(N3CCCC(C(F)(F)F)C3)ccc2N2CCC[C@H]1C2 (single isomer, unassigned) [Example 29] |  | B (EC1.5 1-25 μM) | A (Fold activation≥150%)
Cc1cc(C(=O)N[C@H](C)C(F)(F)F)nc2c1N1CCC[C@@H](C1)N2C(=O)Nc1ccc(OC[C@@H](O)CO)cn1 [Example 56, (9S)-N10-(5-((S)-2,3-dihydroxypropoxy)pyridin-2-yl)-4-methyl-N2-((R)-1,1,1-trifluoropropan-2-yl)-8,9-dihydro-6H-5,9-methanopyrido[2,3-b][1,4]diazocine-2,10(7H)-dicarboxamide] | ≥ 150% | A (EC1.5<1 μM) | 
O=C(Nc1ccnc(OC[C@H](O)CO)c1)N1c2nc(-c3cccc(C(F)(F)F)c3)c(Cl)cc2N2CCC[C@H]1C2 [Example 85, (9S)-3-chloro-N-(2-((R)-2,3-dihydroxypropoxy)pyridin-4-yl)-2-(3-(trifluoromethyl)phenyl)-8,9-dihydro-6H-5,9-methanopyrido[2,3-b][1,4]diazocine-10(7H)-carboxamide] | ≥ 150% | A (EC1.5<1 μM) | 
Cc1ccc2c(NC(=O)N3c4nc(C(=O)N[C@H](C)C(F)(F)F)ccc4N4CCC[C@H]3C4)n[nH]c2n1 [Example 43, (9S)-N10-(6-methyl-1H-pyrazolo[3,4-b]pyridin-3-yl)-N2-((R)-1,1,1-trifluoropropan-2-yl)-8,9-dihydro-6H-5,9-methanopyrido[2,3-b][1,4]diazocine-2,10(7H)-dicarboxamide] | ≥ 150% | A (EC1.5<1 μM) | 
O=C(Nc1ccc(F)cn1)c1cc2c(nc1N1CCCC(C(F)(F)F)C1)N[C@H]1CCCN2C1 (single isomer, unassigned) [Example 58] | ≤ 150% |  | 
